Experimental data: PMC12249509, “Quinazoline Derivative kzl052 Suppresses Prostate Cancer by Targeting WRN Helicase to Stabilize DNA Replication Forks” (International Journal of Molecular Sciences, 2025)

Columns and labels:
[1] = tested on: normal human liver cells LX2; assay: MTT normal cytotoxicity, LX2; assay type: cell-based; details: mean ± SD, n = 3
Method: (§1) Cell suspensions were prepared in a logarithmic growth phase and seeded in 96-well plates at a density of 5000–8000 cells/well for 12 h and treated with different concentrations of kzl052 for 48 h. A 5 mg/mL MTT dye solution (Solarbio, Beijing, China) was added to all cells at 37 °C for 4 h. Then DMSO was added after removing the supernatant, and the crystals were completely dissolved by shaking at 37 °C for 15 min. The absorbance was measured at 490 nm by a microplate reader (Gene, HongKong, China). The cell proliferation inhibition rate was calculated according to the following formula: (1-experimental group OD/control group OD) × 100% with DMSO as a negative control and the WRN inhibitor (NSC 617145, GLPBIO, Montclair, CA, USA) as a positive control.

[2] = tested on: normal human renal epithelial cells HK2; assay: MTT normal cytotoxicity, HK2; assay type: cell-based; details: Epithelial cell, mean ± SD, n = 3
Method: as §1

[3] = tested on: LNCaP cells; assay: γ-H2A.X immunofluorescence (DNA damage), LNCaP; assay type: cell-based, human; details: 100 nM, 24 h
Method: (§2) Cell slides were prepared and treated with 100nM kzl052 for 24 h. A 4% PFA was added for fixation after PBS washing, and then the cells were treated with Triton X-100 (Sigma-Aldrich, Saint Louis, MO, USA) for 30 min. The cells were blocked with 4% BSA for 2 h and incubated overnight at 4 °C with a γ-H2A.X primary antibody (1:1000, CST, Boston, MA, USA). A fluorescent secondary antibody (1:50; CST) was added and incubated in the dark for 2 h. After washing with PBS, a 10 μg/mL DAPI staining solution was added and treated the cells for 5–10 min. The expression and localization of γ-H2A.X was detected by inverted fluorescence microscopy (Leica, Wetzlar, Germany).

[4] = tested on: LNCaP cells; assay: MTT assay, LNCaP cell growth; assay type: cell-based; details: Homo sapiens, 24 h (Figure 1 legend), 48 h (method)
Method: as §1

[5] = tested on: PC3 cells; assay: PC3 xenograft in BALB/c-null mice; assay type: in vivo; details: 5 mg/kg intraperitoneally
Method: Male BALB/c-null mice (4 weeks and 18–20 g) were purchased from SiPeiFu Biotechnology Co., Ltd. (Beijing, China). All SPF-grade mice were fed in the animal room with an IVC system barrier environment (Natural Products Research Center of Guizhou Province). The ambient temperature was maintained at 22 ± 2 °C, the humidity was 40–60%, and the light–dark cycle was maintained for 12 h to simulate the normal external environment. The mice took food and water autonomously. Xenografts were performed by subcutaneously implanting PC3 cells (1 × 10^7/0.1 mL). When the tumor size was 100 mm^3, the mice were randomly divided into 2 groups (N = 8). One group was intraperitoneally injected with kzl052 (5 mg/kg), and the other group was given the same dose of the solvent. The body weight and tumor volume was recorded every two days. The tumor volume (mm^3) = 0.5 × long diameter × short diameter^2. At the end of the experiment, the mice were euthanized and dissected to measure the weight of tumor tissue, heart, liver, spleen, kidney, and lung.
The tumor tissue sections were placed sequentially in xylene I/10 min; xylene II/10 min; absolute ethanol I/5 min; absolute ethanol II/5 min; 95% ethanol/5 min; 90% ethanol/5 min; 80% ethanol/5 min; and 70% ethanol/5 min. Then the sections were treated in a hematoxylin staining solution (Solarbio, Beijing, China) for 3–5 min. The slices were treated by 1% hydrochloric acid alcohol for 5–10 s. The sections were treated in an eosin staining solution (Solarbio, Beijing, China) for 1–3 min. Next, the slices were dehydrated with 95% ethanol/5 min; anhydrous ethanol I/5 min; anhydrous ethanol/5 min; xylene I/5 min; and xylene II/5 min. Finally, the sections were sealed with a neutral gum (Solarbio, Beijing, China). The H&E staining results were photographed and analyzed under light microscopes (Leica, Wetzlar, Germany).
The tissue sections were roasted, dewaxed, hydrated, antigen repaired, blocked, and incubated with a polyclonal antibody (PNCA, RPA, Mre11, PARP1, and RB1 at a 1:50 dilution, HUBIO, and γ-H2A.X at a 1:50 dilution, CST) at 4 °C overnight. The HRP-labeled IgG secondary antibody (1:1000 dilution, HUBIO, Hangzhou, China) was incubated at 37 °C for 2 h, stained with DAB, and then stained with hematoxylin (Solarbio, Beijing, China) and sealed with a neutral rubber (Solarbio, Beijing, China). It was also observed and photographed under a microscope (Leica, Wetzlar, Germany). The immunohistochemical results were statistically analyzed using image Pro plus (V6.0) software.

[6] = tested on: PC3 cells; assay: Bright field and Hoechst staining, PC3; assay type: cell-based, human; details: 24 h
Method: (§3) PC3 and LNCaP cells were cultured and treated with different concentrations of kzl052 for 24 h and then 5 μg/mL of a Hoechst 33258 dye solution (Solarbio, Beijing, China) was added for 5–10 min after PBS washing. The fluorescence microscope (Leica, Wetzlar, Germany) was used for photo observation.

[7] = tested on: WRN-silenced PC3 cells; assay: MTT assay in WRN-silenced PC3 cells; assay type: cell-based, human; details: shWRN lentiviral transfection
Method: Human prostate cancer cell lines PC3 and LNCaP cells were stored in the Biology Laboratory of the Natural Products Research Center of Guizhou Province (Guiyang, China). Cells were cultured in DMEM supplemented with 10% fetal bovine serum (BI, Nahariya, Israel) and 1% penicillin and streptomycin (Solarbio, Beijing, China) and incubated at 37 °C under 5% CO2, 95% air, and 95% humidity. The pLV-shWRN-GFP-Puro and blank control plasmids were constructed by Chongqing UNIBIO Biotechnology Co., Ltd. (Chongqing, China). The transfection steps were based on previous published studies. The inhibitory effect of the WRN protein in PC3 cells was detected by a Western blot assay.
as §1, with “The cell proliferation inhibition rate was calculated according to the following formula: (1-experimental group OD/control group OD) × 100% with DMSO as a negative control and the WRN inhibitor (NSC 617145, GLPBIO, Montclair, CA, USA) as a positive control.” left out

[8] = tested on: PC3 cells; assay: γ-H2A.X immunofluorescence (DNA damage), PC3; assay type: cell-based, human; details: 100 nM, 24 h
Method: as §2

[9] = tested on: PARP1, Bax, PLK1, RB1, Bcl-2, SRC, PTEN, PCNA, RPA, FEN1, Mre11; assay: Western blot of apoptosis, RB signal and replication fork proteins; assay type: cell-based
Method: The cells treated by kzl052 were collected, washed by precooled PBS, and removed by centrifugation at 1000 g/5 min. A RIPA lysate (Solarbio, Beijing, China) was added for 30 min on ice. The protein concentration was determined by a BCA kit (Solarbio, Beijing, China) and denatured at 105 °C. The target proteins were isolated by SDS-PAGE gel electrophoresis and transferred to the PVDF membrane (Millipore, Bedford, MA, USA). A 5% BSA was added to block for 2 h. Primary antibodies (PNCA, RPA, FEN1, Mre11, PARP1, Bax, Bcl-2, PLK1, RB1, SRC, and PTEN; 1:1000 dilution, HUBIO, Hangzhou, China) were added and incubated at 4 °C overnight. The next day, the PVDF membrane with target proteins were washed by TBST and incubated with an HRP-labeled IgG secondary antibody (1:100,000 dilution, HUBIO, Hangzhou, China) for 2 h. After TBST washed, the target proteins were isolated and analyzed by a chemiluminescence instrument (BioRad, Hercules, CA, USA).

[10] = Acute toxicity assay in BALB/c mice; assay type: in vivo; details: mouse, in vivo; within 24 h, male BALB/c mice, one-time treatment
Method: (§4) The toxicity of kzl052 in vivo was tested by an acute toxicity analysis in male BALB/c mice. A total of 20 mice were divided into 5 groups randomly. Each group was given a one-time treatment of kzl052 concentrations at 0 mg/kg, 50 mg/kg, 100 mg/kg, 200 mg/kg, and 500 mg/kg. The survival or death status of mice within 24 h was observed and recorded. The survival and death rate of mice were calculated.

[11] = tested on: BALB/c mice; assay: Acute toxicity assay in BALB/c mice; assay type: in vivo; details: 24 h; for Death Number / Survival Number: 4 mice
Method: as §4

[12] = biological target: T1, WRN helicase (Homo sapiens, UniProt Q14191); assay: WRN-unwinding assay (WRN enzyme activity test); assay type: biochemical; details: Figure S2
T1 construct: ICE Bioscience Inc (Beijing, China)
T1 sequence (Q14191 whole entry): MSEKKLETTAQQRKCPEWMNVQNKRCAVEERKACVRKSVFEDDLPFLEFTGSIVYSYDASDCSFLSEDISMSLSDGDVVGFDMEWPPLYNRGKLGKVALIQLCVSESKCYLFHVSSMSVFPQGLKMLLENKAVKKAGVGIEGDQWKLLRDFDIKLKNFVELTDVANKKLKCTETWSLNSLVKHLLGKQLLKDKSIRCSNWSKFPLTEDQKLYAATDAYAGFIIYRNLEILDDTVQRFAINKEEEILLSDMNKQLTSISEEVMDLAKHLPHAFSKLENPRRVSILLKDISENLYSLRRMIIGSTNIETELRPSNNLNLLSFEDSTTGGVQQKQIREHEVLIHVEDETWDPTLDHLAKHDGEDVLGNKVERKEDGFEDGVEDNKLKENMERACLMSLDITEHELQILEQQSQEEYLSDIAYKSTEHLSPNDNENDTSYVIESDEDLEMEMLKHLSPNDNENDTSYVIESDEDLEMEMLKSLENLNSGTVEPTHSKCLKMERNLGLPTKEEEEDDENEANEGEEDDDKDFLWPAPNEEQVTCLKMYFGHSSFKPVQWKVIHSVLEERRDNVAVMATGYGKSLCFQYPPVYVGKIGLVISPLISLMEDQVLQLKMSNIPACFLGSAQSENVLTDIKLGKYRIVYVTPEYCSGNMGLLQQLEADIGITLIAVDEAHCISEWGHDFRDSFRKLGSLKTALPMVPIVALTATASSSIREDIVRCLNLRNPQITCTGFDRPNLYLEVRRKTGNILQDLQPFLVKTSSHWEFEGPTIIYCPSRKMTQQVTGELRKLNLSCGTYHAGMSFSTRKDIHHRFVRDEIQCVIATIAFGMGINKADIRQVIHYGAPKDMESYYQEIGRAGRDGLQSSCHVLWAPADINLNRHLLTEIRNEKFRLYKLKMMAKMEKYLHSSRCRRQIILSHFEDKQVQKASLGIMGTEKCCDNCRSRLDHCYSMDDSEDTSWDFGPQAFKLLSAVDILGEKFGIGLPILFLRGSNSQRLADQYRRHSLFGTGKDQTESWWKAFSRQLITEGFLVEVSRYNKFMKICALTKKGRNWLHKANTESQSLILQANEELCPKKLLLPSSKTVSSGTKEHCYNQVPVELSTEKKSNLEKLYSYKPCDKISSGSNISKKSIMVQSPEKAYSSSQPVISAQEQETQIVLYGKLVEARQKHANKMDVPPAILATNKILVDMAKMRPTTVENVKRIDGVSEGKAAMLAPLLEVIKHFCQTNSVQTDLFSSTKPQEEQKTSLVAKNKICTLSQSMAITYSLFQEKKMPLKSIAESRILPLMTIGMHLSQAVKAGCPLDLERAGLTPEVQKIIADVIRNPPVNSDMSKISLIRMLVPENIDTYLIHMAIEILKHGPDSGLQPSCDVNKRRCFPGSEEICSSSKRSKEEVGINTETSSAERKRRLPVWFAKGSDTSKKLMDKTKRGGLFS
Method: NSC617145 in WRN FI as s ay KZL -05 2 in WR N FI as s ay
Figure S2.The results of WRN-unwinding assay. WRN enzyme activity test were
performed by ICE Bioscience Inc (Beijing, China).

[13] = tested on: PC3 cells; assay: MTT assay, PC3 cell growth; assay type: cell-based; details: Homo sapiens, PC-3, 24 h (Figure 1 legend), 48 h (method)
Method: as §1

[14] = biological target: T2, WRN protein (Homo sapiens, UniProt Q14191); assay: Cellular thermal shift assay (CETSA); assay type: binding; details: PC3 cells, 100 nM, 2 h
T2 construct: endogenous in cells; host or cells: PC3
T2 sequence (Q14191 whole entry): as above
Method: PC3 cells were cultured and treated with 100 nM kzl052 for 2 h. The cells were collected into 1.5 mL EP tubes, treated with a metal bath at different temperatures (43 °C, 46 °C, 49 °C, 52 °C, and 55 °C) for 3 min, and balanced for 2 min at room temperature. The supernatant was collected by centrifugation after three cycles of liquid nitrogen in a 37 °C water bath, and then a SDS-loading buffer and denatured protein was added at 100 °C for 10 min. Finally, the content of the binding of the WRN protein was detected by Western blot.

[15] = tested on: LNCaP cells; assay: Bright field and Hoechst staining, LNCaP; assay type: cell-based, human; details: 24 h
Method: as §3

[16] = tested on: WRN protein; assay: Western blot of WRN protein level; assay type: cell-based; details: 24 h

CC(=O)O[C@@]12CO[C@@H]1C[C@H](O)[C@@]1(C)C(=O)[C@H](O)C3=C(C)[C@@H](OC(=O)[C@H](O)[C@@H](NC(=O)OC(C)(C)C)c4ccccc4)C[C@@](O)([C@@H](OC(=O)c4ccccc4)[C@H]21)C3(C)C [Docetaxel, reference compound] gave an IC50 [1] of 410 ± 110 nM and an IC50 [2] of 110 ± 10 nM.
CC(C)(CN1C(=O)C(Cl)=C(Cl)C1=O)CN1C(=O)C(Cl)=C(Cl)C1=O [NSC 617145] gave an IC50 [1] of 1810 ± 270 nM.
With Cc1ccc2nc(C(F)(F)F)nc(N(C)c3ccc(OC(F)F)cc3)c2c1 [kzl052] the “γ-H2A.X staining, LNCaP” value [3] was “significantly increased”, the IC50 [4] was 110 ± 10 nM and the “H&E staining compared with the control group” value [5] was “no significant difference”. For the same compound, the “effects on mouse body weight and internal organ morphology” value [5] was “minimal effects”, the “growth of PC3 cells in vivo (tumor volume, tumor quality)” value ([5]; PC3 xenograft) was “significantly inhibited” and the “DNA replication fork complexes in tumor tissues (immunohistochemistry)” value ([5]; γ-H2A.X, PARP1, RB1, PCNA, RPA, Mre11) was “promoted the instability of DNA replication fork complexes”. For the same compound, the “cell death, PC3” value [6] was “promoted PC3 and LNCaP cell death”, the IC50 [1] was 3120 ± 90 nM and the “sensitivity of WRN-silenced PC3 cells” value [7] was “more insensitive”. For the same compound, the “γ-H2A.X staining, PC3” value [8] was “significantly increased”, the “expression of PARP1, Bax, PLK1, and RB1” value [9] was “significantly up-regulated” and the “expression of PCNA, RPA, and FEN1” value [9] was “significantly inhibited”. For the same compound, the “protein level of Mre11” value [9] was “up-regulated”, the “protein levels of Bcl-2, SRC, and PTEN” value [9] was “inhibited” and the IC50 [2] was 920 ± 240 nM. The LD50 at 24 h [10] was 200 to 500 mg/kg, the “Mortality Rate” value ([11]; 50 mg/kg) was 0% and the “Survival Rate” value ([11]; 50 mg/kg) was 100%. For the same compound, the “Death Number” value ([11]; 50 mg/kg) was 0, the “Survival Number” value ([11]; 50 mg/kg) was 4 and the “Mortality Rate” value ([11]; 100 mg/kg) was 0%. For the same compound, the “Survival Rate” value ([11]; 100 mg/kg) was 100%, the “Death Number” value ([11]; 100 mg/kg) was 0 and the “Survival Number” value ([11]; 100 mg/kg) was 4. For the same compound, the “Mortality Rate” value ([11]; 200 mg/kg) was 0%, the “Survival Rate” value ([11]; 200 mg/kg) was 100% and the “Death Number” value ([11]; 200 mg/kg) was 0. For the same compound, the “Survival Number” value ([11]; 200 mg/kg) was 4, the “Mortality Rate” value ([11]; 500 mg/kg) was 75% and the “Survival Rate” value ([11]; 500 mg/kg) was 25%. For the same compound, the “Death Number” value ([11]; 500 mg/kg) was 3, the “Survival Number” value ([11]; 500 mg/kg) was 1 and the “effect on activity of WRN helicase” value [12] was “did not affect the activity of WRN helicase”. For the same compound, the IC50 [13] was 390 ± 10 nM, the “binding to WRN protein (CETSA)” value [14] was “bound to the WRN protein” and the “cell death, LNCaP” value [15] was “promoted PC3 and LNCaP cell death”. For the same compound, the WRN protein expression [16] was “significantly inhibited”.
